Assays:
[1] = target: T1, CBX1 (h) chromodomain (Homo sapiens, UniProt P83916); experiment: Epigenetic binding assay, Chromodomain; details: read-out: % Inhibition of Control Specific Binding
T1 construct: Recognition and specificity determinants of the human cbx chromodomains; Eurofins CEREP (France), contract laboratory

[2] = test system: H3K27 ac; experiment: Cell-based detection methyl modifications; details: read-out: % Inhibition of Control Values
[3] = target: MYST3(h) (Homo sapiens, UniProt Q92794); experiment: Epigenetic enzyme assay, Histone acetyltransferases (HATs); format: biochemical; details: read-out: % Inhibition of Control Values
[4] = target: PRMT6 (h) (Homo sapiens, UniProt Q96LA8); experiment: Epigenetic enzyme assay, Methyltransferases (MTs); format: biochemical; details: read-out: % Inhibition of Control Values
[5] = target: T2, UHRF1 (108-286) (h) (Homo sapiens, UniProt Q96T88); experiment: Epigenetic binding assay, PHD domain; details: for inhibition at 10 µM: read-out: % Inhibition of Control Specific Binding
T2 construct: Eurofins CEREP (France), contract laboratory
T2 sequence (Q96T88 108-286): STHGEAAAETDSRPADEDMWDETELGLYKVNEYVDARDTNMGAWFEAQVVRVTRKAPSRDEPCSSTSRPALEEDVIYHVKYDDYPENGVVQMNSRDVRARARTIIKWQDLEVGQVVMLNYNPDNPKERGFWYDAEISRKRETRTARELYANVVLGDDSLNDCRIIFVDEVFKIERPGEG

[6] = target: T3, CBX4 (h) chromodomain (Homo sapiens, UniProt O00257); experiment: Epigenetic binding assay, Chromodomain; details: read-out: % Inhibition of Control Specific Binding
T3 construct: Recognition and specificity determinants of the human cbx chromodomains; Eurofins CEREP (France), contract laboratory
T3 sequence (O00257 11-69 limits assumed): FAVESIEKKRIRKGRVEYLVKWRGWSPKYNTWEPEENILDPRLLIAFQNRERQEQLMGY

[7] = target: T4, BRD3(2) (h) bromodomain (Homo sapiens, UniProt Q15059); experiment: Epigenetic binding assay, Bromodomain; details: 10 μM; read-out: % Inhibition of Control Specific Binding
T4 construct: Bromodomain

[8] = target: T5, CBX5 (h) chromodomain (Homo sapiens, UniProt P45973); experiment: Epigenetic binding assay, Chromodomain; details: read-out: % Inhibition of Control Specific Binding
T5 construct: Recognition and specificity determinants of the human cbx chromodomains; Eurofins CEREP (France), contract laboratory

[9] = target: HDAC1 (h) (Homo sapiens, UniProt Q13547); experiment: Epigenetic enzyme assay, Histone deacetylase (HDACs); format: biochemical; details: read-out: % Inhibition of Control Values
[10] = target: SETD2(h) (Homo sapiens, UniProt Q9BYW2); experiment: Epigenetic enzyme assay, Methyltransferases (MTs); format: biochemical; details: for inhibition at 10 µM: read-out: % Inhibition of Control Values
[11] = target: T6, PRMT4 (h) (Homo sapiens, UniProt Q86X55); experiment: Epigenetic enzyme assay, Methyltransferases (MTs); format: biochemical; details: for inhibition at 10 µM: read-out: % Inhibition of Control Values; for IC50: Table 11, inhibition/concentration-response curve
T6 sequence (Q86X55 1-608): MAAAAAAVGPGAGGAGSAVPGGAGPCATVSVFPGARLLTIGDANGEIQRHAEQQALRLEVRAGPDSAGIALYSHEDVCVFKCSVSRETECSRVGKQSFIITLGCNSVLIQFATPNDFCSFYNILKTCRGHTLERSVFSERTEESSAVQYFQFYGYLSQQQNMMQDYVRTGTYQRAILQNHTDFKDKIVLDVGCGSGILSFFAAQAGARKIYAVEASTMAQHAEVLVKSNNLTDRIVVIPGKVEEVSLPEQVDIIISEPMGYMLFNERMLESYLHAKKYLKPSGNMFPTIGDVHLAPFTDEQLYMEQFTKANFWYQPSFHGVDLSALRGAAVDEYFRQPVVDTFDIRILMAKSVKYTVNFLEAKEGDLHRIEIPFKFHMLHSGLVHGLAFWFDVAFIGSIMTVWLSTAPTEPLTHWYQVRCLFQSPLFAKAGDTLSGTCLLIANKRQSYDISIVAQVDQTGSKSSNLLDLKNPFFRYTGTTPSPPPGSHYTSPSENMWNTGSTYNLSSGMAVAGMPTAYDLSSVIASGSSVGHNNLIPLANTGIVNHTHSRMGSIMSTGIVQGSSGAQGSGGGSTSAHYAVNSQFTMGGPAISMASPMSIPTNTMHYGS

[12] = target: T7, FBXL11 (h) (Homo sapiens, UniProt Q9Y2K7); experiment: Epigenetic enzyme assay, Demethylases (KDMs); format: biochemical; details: read-out: % Inhibition of Control Values
T7 sequence (Q9Y2K7 1-1162): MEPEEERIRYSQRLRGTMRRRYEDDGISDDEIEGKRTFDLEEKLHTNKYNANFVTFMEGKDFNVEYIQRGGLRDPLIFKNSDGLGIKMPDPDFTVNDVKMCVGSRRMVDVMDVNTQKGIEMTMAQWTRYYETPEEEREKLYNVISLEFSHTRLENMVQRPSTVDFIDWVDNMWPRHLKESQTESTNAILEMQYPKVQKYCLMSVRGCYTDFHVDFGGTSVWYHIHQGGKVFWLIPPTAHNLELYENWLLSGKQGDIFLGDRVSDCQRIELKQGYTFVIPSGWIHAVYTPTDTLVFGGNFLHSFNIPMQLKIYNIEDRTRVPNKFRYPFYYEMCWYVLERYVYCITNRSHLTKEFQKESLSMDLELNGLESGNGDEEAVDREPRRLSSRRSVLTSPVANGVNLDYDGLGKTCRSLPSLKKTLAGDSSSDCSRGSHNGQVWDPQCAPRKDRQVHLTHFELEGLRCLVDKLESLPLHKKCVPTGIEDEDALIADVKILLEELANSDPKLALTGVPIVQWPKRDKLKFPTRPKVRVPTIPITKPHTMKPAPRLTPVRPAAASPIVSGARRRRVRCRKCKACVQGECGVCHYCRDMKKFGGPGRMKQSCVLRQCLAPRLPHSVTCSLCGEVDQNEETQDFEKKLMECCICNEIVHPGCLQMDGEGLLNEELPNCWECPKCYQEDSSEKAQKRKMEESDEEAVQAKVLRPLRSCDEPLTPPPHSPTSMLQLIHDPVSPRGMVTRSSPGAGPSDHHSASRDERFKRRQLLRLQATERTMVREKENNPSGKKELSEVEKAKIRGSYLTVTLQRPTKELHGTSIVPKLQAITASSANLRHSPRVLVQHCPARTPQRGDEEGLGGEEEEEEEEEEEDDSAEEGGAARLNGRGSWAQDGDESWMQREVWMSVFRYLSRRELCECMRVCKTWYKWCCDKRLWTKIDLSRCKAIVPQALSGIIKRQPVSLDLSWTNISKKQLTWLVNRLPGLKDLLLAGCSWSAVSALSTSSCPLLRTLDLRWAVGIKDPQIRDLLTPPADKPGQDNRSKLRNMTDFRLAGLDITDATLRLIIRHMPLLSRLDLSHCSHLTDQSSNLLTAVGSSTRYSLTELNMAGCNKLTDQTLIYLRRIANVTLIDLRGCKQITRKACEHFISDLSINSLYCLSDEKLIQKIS

Sequence of SETD2(h) (Q9BYW2 whole entry): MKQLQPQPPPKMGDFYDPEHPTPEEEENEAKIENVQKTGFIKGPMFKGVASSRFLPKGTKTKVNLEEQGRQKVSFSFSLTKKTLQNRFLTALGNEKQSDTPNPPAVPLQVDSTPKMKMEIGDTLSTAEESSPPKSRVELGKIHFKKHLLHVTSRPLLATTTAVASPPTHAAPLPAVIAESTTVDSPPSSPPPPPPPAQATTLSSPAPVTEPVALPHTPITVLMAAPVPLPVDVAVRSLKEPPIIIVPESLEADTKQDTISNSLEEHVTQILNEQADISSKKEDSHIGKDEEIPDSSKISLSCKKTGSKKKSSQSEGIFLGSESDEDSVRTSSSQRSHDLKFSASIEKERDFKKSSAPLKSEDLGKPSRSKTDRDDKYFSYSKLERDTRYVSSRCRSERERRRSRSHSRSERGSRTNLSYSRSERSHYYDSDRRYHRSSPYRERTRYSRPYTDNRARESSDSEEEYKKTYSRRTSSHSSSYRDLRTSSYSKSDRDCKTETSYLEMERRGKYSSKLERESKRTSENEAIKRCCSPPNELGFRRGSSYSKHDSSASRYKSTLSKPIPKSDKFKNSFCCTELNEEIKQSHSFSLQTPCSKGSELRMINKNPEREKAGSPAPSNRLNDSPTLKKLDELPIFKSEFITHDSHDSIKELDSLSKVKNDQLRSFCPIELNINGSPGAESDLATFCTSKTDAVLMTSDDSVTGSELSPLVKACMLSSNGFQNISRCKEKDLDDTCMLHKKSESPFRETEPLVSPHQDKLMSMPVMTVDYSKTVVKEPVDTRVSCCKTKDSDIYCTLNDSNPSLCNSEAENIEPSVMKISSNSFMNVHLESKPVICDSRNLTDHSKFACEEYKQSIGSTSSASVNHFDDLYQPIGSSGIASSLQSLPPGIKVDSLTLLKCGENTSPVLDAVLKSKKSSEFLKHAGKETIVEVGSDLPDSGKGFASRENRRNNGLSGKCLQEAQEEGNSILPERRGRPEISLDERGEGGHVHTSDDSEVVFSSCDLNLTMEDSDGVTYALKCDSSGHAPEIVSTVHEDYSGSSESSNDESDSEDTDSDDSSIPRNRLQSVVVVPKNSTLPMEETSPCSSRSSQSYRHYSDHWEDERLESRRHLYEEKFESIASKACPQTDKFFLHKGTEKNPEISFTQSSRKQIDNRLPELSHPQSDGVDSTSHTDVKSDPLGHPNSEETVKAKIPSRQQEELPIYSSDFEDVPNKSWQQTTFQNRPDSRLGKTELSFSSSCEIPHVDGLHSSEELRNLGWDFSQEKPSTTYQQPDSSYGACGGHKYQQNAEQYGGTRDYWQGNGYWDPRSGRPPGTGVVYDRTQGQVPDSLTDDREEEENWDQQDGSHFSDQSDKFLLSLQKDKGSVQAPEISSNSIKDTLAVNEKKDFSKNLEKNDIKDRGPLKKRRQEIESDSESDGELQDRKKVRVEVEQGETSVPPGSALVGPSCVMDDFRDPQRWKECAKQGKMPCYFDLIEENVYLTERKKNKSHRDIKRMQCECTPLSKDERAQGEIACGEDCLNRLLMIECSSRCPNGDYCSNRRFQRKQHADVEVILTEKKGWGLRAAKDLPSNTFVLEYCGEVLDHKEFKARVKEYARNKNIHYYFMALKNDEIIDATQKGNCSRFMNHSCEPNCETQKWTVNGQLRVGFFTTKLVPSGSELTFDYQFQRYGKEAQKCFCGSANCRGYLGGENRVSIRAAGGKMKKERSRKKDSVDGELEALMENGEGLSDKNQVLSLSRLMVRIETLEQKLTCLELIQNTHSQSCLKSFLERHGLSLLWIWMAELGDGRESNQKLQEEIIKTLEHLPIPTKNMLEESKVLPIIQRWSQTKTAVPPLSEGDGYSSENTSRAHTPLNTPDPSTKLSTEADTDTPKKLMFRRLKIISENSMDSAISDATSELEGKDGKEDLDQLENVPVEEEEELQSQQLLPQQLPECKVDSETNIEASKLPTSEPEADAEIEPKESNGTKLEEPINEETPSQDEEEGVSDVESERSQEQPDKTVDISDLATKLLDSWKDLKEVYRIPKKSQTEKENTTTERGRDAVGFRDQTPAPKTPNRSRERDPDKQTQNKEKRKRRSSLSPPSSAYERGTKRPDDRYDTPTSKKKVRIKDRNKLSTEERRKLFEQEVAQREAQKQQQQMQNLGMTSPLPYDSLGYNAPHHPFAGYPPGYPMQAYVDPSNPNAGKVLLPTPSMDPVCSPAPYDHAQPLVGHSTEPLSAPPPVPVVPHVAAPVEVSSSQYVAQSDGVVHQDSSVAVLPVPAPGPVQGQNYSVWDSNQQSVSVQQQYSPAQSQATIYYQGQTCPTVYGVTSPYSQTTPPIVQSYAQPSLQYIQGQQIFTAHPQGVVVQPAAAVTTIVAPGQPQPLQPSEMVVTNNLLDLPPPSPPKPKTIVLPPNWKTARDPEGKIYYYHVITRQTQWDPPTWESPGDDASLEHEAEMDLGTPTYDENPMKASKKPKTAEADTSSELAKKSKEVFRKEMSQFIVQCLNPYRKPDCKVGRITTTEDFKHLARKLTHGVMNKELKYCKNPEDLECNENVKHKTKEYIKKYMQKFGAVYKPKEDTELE
T4 sequence (Q15059 306-415 limits assumed): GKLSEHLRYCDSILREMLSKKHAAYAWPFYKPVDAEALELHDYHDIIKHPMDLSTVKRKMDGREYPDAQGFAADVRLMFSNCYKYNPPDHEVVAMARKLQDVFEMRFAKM
T1 sequence (P83916 21-79 limits assumed): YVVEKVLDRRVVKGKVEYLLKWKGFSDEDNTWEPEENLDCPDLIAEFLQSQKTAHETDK
Sequence of PRMT6 (h) (Q96LA8 whole entry, the tested form may be a part): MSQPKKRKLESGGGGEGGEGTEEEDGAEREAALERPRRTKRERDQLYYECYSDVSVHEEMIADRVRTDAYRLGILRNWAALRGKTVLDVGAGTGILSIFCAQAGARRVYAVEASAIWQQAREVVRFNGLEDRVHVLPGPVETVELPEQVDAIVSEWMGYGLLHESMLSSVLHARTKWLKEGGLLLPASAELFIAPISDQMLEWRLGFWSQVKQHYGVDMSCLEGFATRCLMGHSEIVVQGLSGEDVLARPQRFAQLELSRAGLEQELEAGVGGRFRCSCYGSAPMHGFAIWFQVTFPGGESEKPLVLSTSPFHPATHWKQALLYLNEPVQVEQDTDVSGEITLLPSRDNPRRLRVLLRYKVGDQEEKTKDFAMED
Sequence of HDAC1 (h) (Q13547 whole entry): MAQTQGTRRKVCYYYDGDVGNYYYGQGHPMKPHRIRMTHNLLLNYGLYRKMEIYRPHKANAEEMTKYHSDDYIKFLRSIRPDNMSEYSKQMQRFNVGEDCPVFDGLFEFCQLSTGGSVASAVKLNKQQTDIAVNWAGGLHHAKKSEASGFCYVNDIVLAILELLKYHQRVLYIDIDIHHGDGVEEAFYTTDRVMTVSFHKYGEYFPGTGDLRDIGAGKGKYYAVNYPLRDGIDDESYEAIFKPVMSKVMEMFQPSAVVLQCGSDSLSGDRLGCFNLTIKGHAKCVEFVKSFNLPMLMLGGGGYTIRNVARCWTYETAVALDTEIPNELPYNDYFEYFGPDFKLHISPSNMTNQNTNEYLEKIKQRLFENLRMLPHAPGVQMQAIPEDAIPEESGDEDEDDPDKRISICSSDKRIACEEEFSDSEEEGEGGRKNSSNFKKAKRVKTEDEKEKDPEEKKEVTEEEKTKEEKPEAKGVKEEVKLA
T5 sequence (P45973 20-78 limits assumed): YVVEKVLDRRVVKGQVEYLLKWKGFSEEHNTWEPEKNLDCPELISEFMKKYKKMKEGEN

| Structure (SMILES) | inhibition at 10 µM [1] [%] | inhibition at 10 µM [2] [%] | inhibition at 10 µM [3] [%] | inhibition at 10 µM [4] [%] | inhibition at 10 µM ([5]; 10 μM) [%] | inhibition at 10 µM [6] [%] | inhibition at 10 µM [7] [%] | inhibition at 10 µM [8] [%] | inhibition at 10 µM [9] [%] | inhibition at 10 µM [10] [%] | inhibition at 10 µM [11] [%] | IC50 [11] [µM] | inhibition at 10 µM [12] [%] | also measured |
| --- | --- | --- | --- | --- | --- | --- | --- | --- | --- | --- | --- | --- | --- | --- |
| CC(C)=CCC[C@H](CO)[C@@H]1CC[C@@H](C)c2c1cc(C)c(O)c2O [Compound 1, 7,8,18-trihydroxyserrulat-14-ene] | 15 | -16 | 18 | 49 | 73 | 25 | 35 | 25 | -2 | -9 | 90 | 4.7 | 34 | % Inhibition of Control Specific Binding ([5]; 10 μM): good inhibitory activity; inhibition of binding, 1st ([5]; 3.0E−05M): 81.5; inhibition of binding, 2nd ([5]; 3.0E−05M): 83.3; inhibition of binding, Mean ([5]; 3.0E−05M): 82.4; inhibition of binding, 1st ([5]; 3.0E−06M): −1.8; inhibition of binding, 2nd ([5]; 3.0E−06M): −0.1; inhibition of binding, Mean ([5]; 3.0E−06M): −0.9; inhibition of binding, 1st ([5]; 3.0E−07M): −12.1; inhibition of binding, 2nd ([5]; 3.0E−07M): −13.2; inhibition of binding, Mean ([5]; 3.0E−07M): −12.7; inhibition of binding, 1st ([5]; 3.0E−08M): −13.3; inhibition of binding, 2nd ([5]; 3.0E−08M): −12.6; inhibition of binding, Mean ([5]; 3.0E−08M): −12.9; inhibition of binding, 1st ([5]; 3.0E−09M): −11.9; inhibition of binding, 2nd ([5]; 3.0E−09M): −13.1; inhibition of binding, Mean ([5]; 3.0E−09M): −12.5; IC50 ([5]; Table 9, inhibition/concentration-response curve): 11 µM |
| CC(C)=CCC[C@@H]1C(O)Oc2c(C)cc(O)c3c2[C@H]1CC[C@H]3C (stereo partly drawn) [Compound 2, 5,18-epoxyserrulat-14-en-8,18-diol] | 0 | -12 | 11 | 57 | 34 | 29 | 25 | 24 | -1 | -4 | 84 | 5.4 | 2 |  |
| CC(C)=CCC[C@@H]1COc2c(C)cc(O)c3c2[C@H]1CC[C@H]3C [Compound 3, 5,18-epoxy-8-hydroxyserrulat-14-ene] | -1 | -11 | 3 | 34 | 29 | 40 | 1 | 25 | -1 | -11 | 77 |  | 11 |  |
| CC(C)=CCC[C@H](C)[C@@H]1CC[C@@H](C)c2c1cc(C)c(O)c2O [Compound 4, 7,8-dihydroxyserrulat-14-ene] |  |  |  |  |  |  |  |  |  |  |  | 4.7 |  |  |
| Nc1ncnc2c1ncn2[C@@H]1O[C@H](CSCC[C@H](N)C(=O)O)[C@@H](O)[C@H]1O [SAH] |  |  |  |  |  |  |  |  |  |  |  |  |  | IC50 ([10]; read-out: Reference IC50): 1.2 µM |

Reference: patent US11331299B2, “Medicinal use of serrulatane diterpenes” (The University of Sydney, priority 2016, dated 2022)
